Laboratory results from patent EP1117659B1, “SUBSTITUTED 3-CYANOQUINOLINES AS PROTEIN TYROSINE KINASES INHIBITORS” (Wyeth Holdings Corporation, priority 1998, dated 2000).
In brackets after ≈: the same amount, converted by molar mass. Several values for one entry are separate records, joined by “and”; a condition that tells them apart may be missing. Equal entries are not always repeated. Where two headings read alike, the source gives them in different places.

Key:
[1] = biological target: Epithelial Cell Kinase (ECK) (Homo sapiens, UniProt P29317); experiment: Inhibition of Epithelial Cell Kinase (ECK), immobilized biotinylated peptide, HRP anti-phosphotyrosine readout; assay type: biochemical; details: IC50, substrate phosphorylation
Sequence of Epithelial Cell Kinase (ECK) (P29317 24-976, species assumed): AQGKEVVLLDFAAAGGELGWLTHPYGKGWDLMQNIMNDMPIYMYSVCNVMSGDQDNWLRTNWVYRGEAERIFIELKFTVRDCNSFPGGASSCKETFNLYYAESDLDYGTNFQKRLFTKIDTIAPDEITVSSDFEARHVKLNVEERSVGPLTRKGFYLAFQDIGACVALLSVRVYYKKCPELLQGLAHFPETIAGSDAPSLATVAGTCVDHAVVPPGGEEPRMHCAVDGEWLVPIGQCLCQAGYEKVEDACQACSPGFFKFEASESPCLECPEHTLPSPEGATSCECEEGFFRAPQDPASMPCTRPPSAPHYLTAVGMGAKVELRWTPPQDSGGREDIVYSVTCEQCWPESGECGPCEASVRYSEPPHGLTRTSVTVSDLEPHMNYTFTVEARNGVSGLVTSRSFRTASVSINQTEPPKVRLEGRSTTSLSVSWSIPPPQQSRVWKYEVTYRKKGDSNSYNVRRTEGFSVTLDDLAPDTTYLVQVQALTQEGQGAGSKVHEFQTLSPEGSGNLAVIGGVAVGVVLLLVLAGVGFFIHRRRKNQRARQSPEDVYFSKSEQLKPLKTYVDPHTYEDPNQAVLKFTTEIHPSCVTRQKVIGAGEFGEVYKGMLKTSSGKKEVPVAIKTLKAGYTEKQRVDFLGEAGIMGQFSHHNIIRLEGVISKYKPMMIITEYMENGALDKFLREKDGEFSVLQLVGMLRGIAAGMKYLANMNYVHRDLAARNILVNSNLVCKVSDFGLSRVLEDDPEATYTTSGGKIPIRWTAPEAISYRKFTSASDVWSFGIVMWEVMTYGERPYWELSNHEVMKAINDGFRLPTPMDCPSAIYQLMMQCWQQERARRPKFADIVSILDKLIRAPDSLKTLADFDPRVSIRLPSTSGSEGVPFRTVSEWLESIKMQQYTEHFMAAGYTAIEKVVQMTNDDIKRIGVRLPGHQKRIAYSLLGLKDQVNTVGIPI
Method: In this standard pharmacological test procedure, a biotinylated peptide substrate is first immobilized on neutravidin-coated microtiter plates. The test drug, the Epithelial Cell Kinase (ECK), Mg^++, sodium vanadate (a protein tyrosine phosphatase inhibitor), and an appropriate buffer to maintain pH (7.2) are then added to the immobilized substrate-containing microtiter wells. ATP is then added to initiate phosphorylation. After incubation, the assay plates are washed with a suitable buffer leaving behind phosphorylated peptide which is exposed to horse radish peroxidase (HRP)-conjugated anti-phosphotyrosine monoclonal antibody. The antibody-treated plates are washed again and the HRP activity in individual wells is quantified as a reflection of degree of substrate phosphorylation. […] Multiple entries for a given compound indication it was tested multiple times.

3T3 = experiment: Inhibition of Cancer Cell Growth as Measured by Cell Number (Sulforhodamine B); assay type: cell-based; details: Mus musculus, NIH3T3; 48 hours exposure
Method: (§1) Human tumor cell lines were plated in 96-well plates (250 µl/well, 1-6 x 10^4 cells/ml) in RPMI 1640 medium, containing 5% FBS (Fetal Bovine Serum). […] After 48 hours exposure to test compounds, cells were fixed with trichloroacetic acid, and stained with Sulforhodamine B. After washing with trichloroacetic acid, bound dye was solubilized in 10 mM Tris base and optical density was determined using plate reader. Under conditions of the assay the optical density is proportional to the number of cells in the well. […] The test procedure is described in details by Philip Skehan et. al, J.Natl. Canc. Inst., 82, 1107-1112 (1990). […] Information about some of the cell lines used in these test procedures is available from the American Type Tissue Collection: Cell Lines and Hybridomas, 1994 Reference Guide, 8th Edition.

3T3/c-erbb2 = experiment: as above; assay type: cell-based; details: 48 hours exposure
Method: as §1

[2] = biological target: Recombinant human MEK 1 (MAPKK) / recombinant human ERK2 (MAPK) (Mek-Erk) (Homo sapiens, UniProt P28482+Q02750); experiment: Mitogen Activated Protein Kinase (MAPK) assay, two component coupled Mek-Erk test; assay type: biochemical
Sequence of Recombinant human MEK 1 (MAPKK) / recombinant human ERK2 (MAPK) (Mek-Erk) (P28482 2-360): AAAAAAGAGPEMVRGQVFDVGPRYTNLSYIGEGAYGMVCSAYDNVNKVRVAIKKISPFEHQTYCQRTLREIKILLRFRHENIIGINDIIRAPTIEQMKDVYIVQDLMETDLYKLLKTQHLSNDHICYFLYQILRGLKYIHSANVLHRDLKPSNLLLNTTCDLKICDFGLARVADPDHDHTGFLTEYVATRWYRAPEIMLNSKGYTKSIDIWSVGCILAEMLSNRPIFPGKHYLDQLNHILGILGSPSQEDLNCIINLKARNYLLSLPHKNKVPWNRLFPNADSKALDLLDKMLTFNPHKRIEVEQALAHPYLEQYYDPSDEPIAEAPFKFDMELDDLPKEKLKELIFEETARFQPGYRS
Sequence of Recombinant human MEK 1 (MAPKK) / recombinant human ERK2 (MAPK) (Mek-Erk) (Q02750 whole entry): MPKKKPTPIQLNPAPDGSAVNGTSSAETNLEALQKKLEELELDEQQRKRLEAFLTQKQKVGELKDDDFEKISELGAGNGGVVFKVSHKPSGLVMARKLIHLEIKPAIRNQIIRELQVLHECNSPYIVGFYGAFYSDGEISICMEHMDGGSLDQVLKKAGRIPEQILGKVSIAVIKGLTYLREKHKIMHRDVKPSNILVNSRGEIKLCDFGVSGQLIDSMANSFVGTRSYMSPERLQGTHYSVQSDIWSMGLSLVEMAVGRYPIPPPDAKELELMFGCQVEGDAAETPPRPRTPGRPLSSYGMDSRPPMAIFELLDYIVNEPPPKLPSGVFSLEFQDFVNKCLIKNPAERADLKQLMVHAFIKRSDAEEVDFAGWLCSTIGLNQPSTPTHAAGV
Method: To evaluate inhibitors of the MAP (mitogen activated protein) kinase a two component coupled standard pharmacological test procedure, which measures phosphorylation of a serine/threonine residue in an appropriate sequence in the substrate in the presence and absence of a putative inhibitor, was used. Recombinant human MEK 1 (MAPKK) was first used to activate recombinant human ERK2 (MAPK) and the activated MAPK (ERK) was incubated with substrate (MBP peptide or MYC peptide) in the presence of ATP, Mg^+2 and radiolabeled ^33P ATP. The phosphorylated peptide was captured on a P 81 phosphocellulose filter (paper filter or embedded in microtiter plate) washed and counted by scintillation methods.
The peptide substrates used in the assay are MBP, peptide substrate ([sequence]), or synthetic Myc substrate, ([sequence]•5 TFA. The recombinant enzymes used were prepared as GST fusion proteins of human ERK 2 and human MEK 1. Inhibitor samples were prepared as 10X stocks in 10% DMSO and an appropriate aliquot was used to deliver either 10 ug/ml for a single point screening dose or 100, 10, 1, and 0.1 uM final concentration for a dose response curve. Final DMSO concentrations were less than or equal to 1%.
The reaction was run as follows in 50 mM Tris kinase buffer, pH 7.4 in a reaction volume of 50 ul. The appropriate volume of kinase buffer and inhibitor sample was added to the tube. Appropriate dilution of enzyme was delivered to give 2-5 ug recombinant MAPK (Erk ) per tube. The inhibitor was incubated with MAPK (Erk) for 30 min at 0° C. Recombinant Mek (MAPKK) ( 0.5-2.5 ug) or fully activated Mek (0.05-0.1 units) was added to activate the Erk and incubated for 30 min at 30° C. Then substrate and gamma ^33P ATP was were added to give a final concentration of 0.5- 1 mM MBPP or 250-500 uM Myc; 0.2-0.5 uCi gamma P 33 ATP/tube; 50 µM ATP final concentration. Samples were incubated at 30°C for 30 minutes and the reaction was stopped by adding 25 µl of ice cold 10 %TCA .After samples were chilled on ice for 30 min, 20 µl of sample was transferred onto P 81 phosphocellulose filter paper or appropriate MTP with embedded P 81 filter. Filter papers or MTP were washed 2 times with a large volume of 1% acetic acid, then 2 times with water. The filters or MTP were briefly air dried before addition of scintillant and samples were counted in the appropriate scintillation counter set up for reading ^33P isotope.
The raw data was captured as cpm. Sample replicates were averaged and corrected for background count. Mean cpm data was tabulated by group and % inhibition by a test compound was calculated as (corrected cpm control- corrected. cpm sample/control) X 100 = % inhibition.

A431 = experiment: Inhibition of Cancer Cell Growth as Measured by Cell Number (Sulforhodamine B); assay type: cell-based, Human; details: Homo sapiens, A-431, 48 h, 48 hours exposure
Method: as §1

MDA-MB-435 = experiment: as above; assay type: cell-based, Human; details: Homo sapiens, MDA-MB-435, 48 h, 48 hours exposure
Method: as §1

SK-BR3 = experiment: as above; assay type: cell-based, Human; details: Homo sapiens, SK-BR-3, 48 h, 48 hours exposure
Method: as §1

SW620 = experiment: as above; assay type: cell-based, Human; details: Homo sapiens, SW-620, 48 h, 48 hours exposure
Method: as §1

[3] = biological target: T1, Kinase insert Domain containing Receptor (KDR: the catalytic domain of the VEGF receptor) (Homo sapiens, UniProt P35968); experiment: Inhibition of Kinase insert Domain containing Receptor (KDR), radioactive phosphorylation of Glu:Tyr copolymer; assay type: biochemical; details: IC50, substrate phosphorylation
T1 construct: KDR: the catalytic domain of the VEGF receptor
T1 sequence (P35968 834-1162 limits assumed): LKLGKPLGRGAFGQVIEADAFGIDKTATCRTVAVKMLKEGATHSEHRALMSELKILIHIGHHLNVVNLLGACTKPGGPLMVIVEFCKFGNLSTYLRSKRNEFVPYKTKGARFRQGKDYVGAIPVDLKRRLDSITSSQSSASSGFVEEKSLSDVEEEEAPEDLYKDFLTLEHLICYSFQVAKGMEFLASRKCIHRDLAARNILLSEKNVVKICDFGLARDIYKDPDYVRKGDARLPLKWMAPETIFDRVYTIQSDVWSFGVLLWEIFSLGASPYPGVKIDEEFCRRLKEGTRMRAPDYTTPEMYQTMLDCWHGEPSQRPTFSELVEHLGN
Method: In this standard pharmacological test procedure, KDR protein is mixed, in the presence or absence of a inhibitor compound, with a substrate peptide to be phosphorylated (a copolymer of glutamic acid and tyrosine, E:Y :: 4:1) and other cofactors such as Mg^++ and sodium vanadate (a protein tyrosine phosphatase inhibitor) in an appropriate buffer to maintain pH (7.2). ATP and a radioactive tracer (either P^32- or P^33- labeled ATP) is then add to initiate phosphorylation. After incubation, the radioactive phosphate associated with the acid-insoluble fraction of the assay mixture is then quantified as reflection of substrate phosphorylation. […] Multiple entries for a given compound indication it was tested multiple times.

[4] = biological target: T2, epidermal growth factor receptor kinase (EGF-R Kinase, recombinant enzyme; His-tagged cytoplasmic domain of EGFR) (Homo sapiens, UniProt P00533); experiment: Inhibition of Epidermal Growth Factor Receptor Kinase (EGF-R) using recombinant enzyme, RR-SRC peptide phosphorylation, 33P-ATP; assay type: biochemical; details: for inhibition at 0.5 µM: read-out: %Inh @ 0.5 µM; for IC50: recombinant enzyme, 90 min at room temperature
T2 construct: EGFR cDNA encoding amino acids 645 - 1186 preceded by Met-Ala-(His)6; Met-Ala-(His)6 (N); made in house; host or cells: Sf9 insect cells, recombinant baculovirus vHcEGFR52
T2 sequence (P00533 669-1210): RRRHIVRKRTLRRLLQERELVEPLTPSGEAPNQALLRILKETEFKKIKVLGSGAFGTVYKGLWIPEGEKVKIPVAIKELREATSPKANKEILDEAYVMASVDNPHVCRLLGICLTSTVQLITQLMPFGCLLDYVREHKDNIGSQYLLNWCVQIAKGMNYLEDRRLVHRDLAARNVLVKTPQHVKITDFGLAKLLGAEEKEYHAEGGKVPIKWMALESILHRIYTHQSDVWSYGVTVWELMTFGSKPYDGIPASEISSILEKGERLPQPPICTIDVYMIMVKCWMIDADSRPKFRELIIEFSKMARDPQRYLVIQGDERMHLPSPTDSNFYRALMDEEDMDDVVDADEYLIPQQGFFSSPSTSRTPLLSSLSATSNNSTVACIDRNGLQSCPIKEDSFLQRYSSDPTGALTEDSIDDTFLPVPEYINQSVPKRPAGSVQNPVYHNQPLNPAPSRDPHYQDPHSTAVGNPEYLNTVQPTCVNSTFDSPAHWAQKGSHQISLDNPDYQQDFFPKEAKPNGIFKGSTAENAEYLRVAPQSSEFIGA
Method: Representative test compounds were evaluated for their ability to inhibit the phosphorylation of the tyrosine residue of a peptide substrate catalyzed by the enzyme epidermal growth factor receptor kinase. The peptide substrate (RR-SRC) has the sequence arg-arg-leu-ile-glu-asp-ala-glu-tyr-ala-ala-arg-gly. The enzyme used in this test procedure is the His-tagged cytoplasmic domain of EGFR. A recombinant baculovirus (vHcEGFR52) was constructed containing the EGFR cDNA encoding amino acids 645 - 1186 preceded by Met-Ala-(His)6. Sf9 cells in 100 mm plates were infected at an moi of 10 pfu/cell and cells were harvested 48 h post infection. A cytoplasmic extract was prepared using 1% Triton X-100 and applied to Ni-NTA column. After washing the column with 20 mM imidazole, HcEGFR was eluted with 250 mM imidazole (in 50 mM Na2HPO4, pH 8.0, 300 mM NaCl). Fractions collected were dialyzed against 10 mM HEPES, pH 7.0, 50 mM NaCl, 10% glycerol, lug/mL antipain and leupeptin and 0.1 mM Pefabloc SC. The protein was frozen in dry ice/methanol and stored -70°C.
Test compounds were made into 10 mg/mL stock solutions in 100% dimethylsulfoxide (DMSO). Prior to experiment, stock solutions were diluted to 500 uM with 100% DMSO and then serially diluted to the desired concentration with HEPES buffer (30 mM HEPES pH 7.4).
For the enzyme reaction, 10 uL of each inhibitor (at various concentrations) were added to each well of a 96-well plate. To this was added 3 uL of enzyme (1:10 dilution in 10mM HEPES, pH 7.4 for final cone. of 1:120). This was allowed to sit for 10 min on ice and was followed by the addition of 5 ul peptide (80 uM final cone.), 10ul of 4X Buffer (Table A), 0.25 uL ^33P-ATP and 12 uL H2O. The reaction was allowed to run for 90 min at room temperature and was followed by spotting the entire volume on to precut P81 filter papers. The filter discs were washed 2X with 0.5% phosphoric acid and radioactivity was measured using a liquid scintillation counter.
The inhibition data for representative compounds of the invention are shown below in TABLE 1. […] The % inhibition of the test compound was determined for at least three different concentrations and the IC50 value was evaluated from the dose response curve. […] CPM(control) is in units of counts per minute and was a number expressing the amount of radiolabled ATP (γ-^33P) incorporated into the RR-SRC peptide substrate by the enzyme after 90 minutes at room temperature in the absence of test compound as measured by liquid scintillation counting. The CPM values were corrected for the background counts produced by ATP in the absence of the enzymatic reaction. […]

SMILES | IC50 [1] [µM] | IC50 (3T3) [µg/mL] | IC50 (3T3/c-erbb2) [µg/mL] | IC50 ([2]; read-out: Mek-Erk µM) [µM] | IC50 (A431) [µg/mL] | IC50 (MDA-MB-435) [µg/mL] | IC50 (SK-BR3) [µg/mL] | IC50 (SW620) [µg/mL] | IC50 [3] | inhibition at 0.5 µM [4] [%] | IC50 [4] [µM] | IC50 ([2]; read-out: Mek-Erk) [µM]
CCOc1cc2ncc(C#N)c(Nc3ccc4[nH]c(=O)oc(=O)c4c3)c2cc1OCC [Example 109, 4-(2,4-Dioxo-1,4-dihydro-2H-benzo[d][1,3]oxazin-6-ylamino)-6,7-diethoxy-quinoline-3-carbonitrile] | > 47.8 | > 5 | 4.62 (≈ 11 µM) | > 100 | > 5 | > 5 | > 5 | 2.92 (≈ 6.98 µM) | 23.9 µM | – | – | –
CCOc1cc2ncc(C#N)c(Nc3ccc4c(c3)C(=O)OC4)c2cc1OCC [Example 111, 6,7-Diethoxy-4-(3-oxo-1,3-dihydro-isobenzofuran-5-ylamino)-quinoline-3-carbonitrile] | > 51.4 | > 5 | 3.3 (≈ 8.48 µM) | > 100 | > 5 | 3.4 (≈ 8.74 µM) | > 5 | 1.56 (≈ 4.02 µM) | > 77 µM | 10 | > 1 | –
CCOc1cc2ncc(C#N)c(Nc3ccc4c(c3)S(=O)(=O)C=C4)c2cc1OCC [Example 112, 4-(1,1-Dioxo-1H-benzo[b]thiophen-6-ylamino)-6,7-diethoxy-quinoline-3-carbonitrile] | > 47.5 | 0.392 (≈ 0.93 µM) | 0.251 (≈ 0.596 µM) | – | 0.257 (≈ 0.61 µM) | 0.0033 (≈ 0.00783 µM) | 0.336 (≈ 0.797 µM) | 0.146 (≈ 0.346 µM) | > 71.2 µM | – | – | > 100
CCOc1cc2ncc(C#N)c(Nc3ccc4cn[nH]c4c3)c2cc1OC [Example 115, 7-Ethoxy-4-(indazol-6-ylamino)-6-methoxy-quinoline-3-carbonitrile] | > 27.8 | 0.344 (≈ 0.957 µM) | 0.0267 (≈ 0.0743 µM) | – | 0.0368 (≈ 0.102 µM) | 0.0359 (≈ 0.0999 µM) | 0.022 (≈ 0.0612 µM) | 0.0212 (≈ 0.059 µM) | 5.56 µM and > 2.78 µM | 49 | > 0.5 | 25
CCOc1cc2c(Nc3ccc4cn[nH]c4c3)c(C#N)cnc2cc1OC [Example 126, 6-Ethoxy-4-(1H-indazol-6-ylamino)-7-methoxyquinoline-3-carbonitrile] | > 27.9 | 3.22 (≈ 8.96 µM) | 4.8 (≈ 13.4 µM) | – | 0.786 (≈ 2.19 µM) | 2.63 (≈ 7.31 µM) | 2.09 (≈ 5.83 µM) | 4.31 (≈ 12 µM) | 8.36 µM and > 2.79 µM | – | 0.45 | > 100
CCOc1cc2ncc(C#N)c(Nc3ccc4c(c3)C(=O)NCC(=O)N4C)c2cc1OCC [Example 127, 6,7-Diethoxy-4-(1-methyl-2,5-dioxo-2,3,4,5-tetrahydro-1H-benzo[e][1,4]diazepin-7-ylamino)-quinoline-3-carbonitrile] | > 44.9 | > 5 | > 5 | – | > 5 | > 5 | > 5 | > 5 | > 67.3 µM | 25 | > 1 | > 100
